Data on 1 molecule can be found in patent US20260137678A1, “METHODS FOR TREATING OR PREVENTING NEUROENDOCRINE TUMOR FORMATION USING XPO1 INHIBITORS” (priority 2022, published 2026).

In test [1] the test system is control and TP53/RB1-inactivated LnCap/AR (PRAD) cells. Kind of test: Monotherapy cytotoxicity assay (CellTiter-Glo viability). The test is classed as cell-based. As to conditions: 5 nM selinexor; TP53/RB1 inactivation relative to wild-type controls. The source says:
FIGS. 2A-2E. Loss of TP53/RB1 function induces exportin 1 expression and sensitivity to selinexor. FIG. 2A: XPO1 mRNA expression in LUAD clinical specimens, categorized by their TP53/RB1 status. Data obtained from LUAD TCGA (PanCancer, n=237 wild type (wt), 33 mutated), LUAD OncoSG (OncoSG, Nat Genetics 2020, n=109 wt, 6 mutated) and PRAD TCGA (PanCancer, n=367 wt, 6 mutated)^14,15. FIG. 2B: Western blot showing exportin 1 protein abundance in isogenic H1563 (LUAD) and 22PC (PRAD) cell lines with or without induced loss of function of TP53 and/or RB1 and western blot quantification (n=2) (see methods). FIG. 2C: Barplot showing a representative biological replicate of an experiment assessing viability of control and TP53/RB1-loss (DKO) H1563, 22PC and LnCap (PRAD) cells treated with 5 nM selinexor. […] For FIGS. 2B-2C, p-values were calculated using the Student's t-test (unpaired, heterogeneous variances, two-tailed). p-value legend: *<0.05, **<0.01, ***<0.001. […]
Cytotoxic assays were performed as described in^22 with a total of 1,500 cells/well seeded in 96-well plates and treated with the drugs/doses described for 96 hours. Viability was assessed with the CellTiter-Glo 2.0 Assay (Promega, G9242) as indicated by manufacturer, and normalized to the untreated control wells.

Test [2] deals with MSK_Lx151 PDX. It counts as in vivo. The source says:
FIGS. 4A-4I: Exportin 1 inhibition interferes with NE transformation. In vivo treatment of cell line xenografts for TP53/RB1 DKO 22PC (FIG. 4A) and LnCap/AR (FIG. 4D) PRAD cells with enzalutamide, selinexor or their combination. 5-10 female (22PC) or male (LnCap/AR) 6-week-old athymic nude mice were subcutaneously engrafted per treatment arm and until tumors reached 100-150 mm^3. At that point, mice were randomized into groups and treated with either vehicle (n=7 for 22PC and n=4 for LnCap/AR), selinexor (10 mg/kg p.o. QDx3, n=7 for 22PC and n=4 for LnCap/AR), enzalutamide (10 mg/kg p.o. QDx5, n=7 for 22PC and n=5 for LnCap/AR), or the combinations of enzalutamide+selinexor at the previously mentioned doses (n=9 for 22PC and n=5 for LnCap/AR). Mice weights and tumor volumes were measured twice a week and mice were sacrificed when tumors reached humane endpoint (volume=1000 mm^3). Tumor volumes are shown as normalized volume in arbitrary units (au). Each tumor was normalized to its volume at day 0 of treatment. Representative IHC images for synaptophysin (SYP) and chromogranin A (CHGA) staining in DKO 22PC (FIG. 4B) and LnCap/AR (FIG. 4E) tumors. Quantification of SYP- or CHGA-positive cells, normalized to tissue area, in immunohistochemical tissue stains in DKO 22PC (n=6, 5, 4 and 4 tumor for control, selinexor-, enzalutamide and combo-treated arms, respectively) (FIG. 4C) and LnCap/AR (FIG. 4F) (n=5, 5, 6 and 6 randomly selected tissue pieces for control, selinexor-, enzalutamide and combo-treated arms, respectively) tumors. Positive cells were counted, tissue area (viable tumor area) was estimated using the SketchAndCalc online app (https://www.sketchandcalc.com/), and positive-stained cells were normalized by estimated area. […] Mice weights and tumor volumes were measured twice a week and mice were sacrificed when tumors reached humane endpoint (volume=1000 mm^3). […] For FIGS. 4A, 4C, 4D and 4F, P-values were calculated using the Student's t-test (unpaired, heterogeneous variances, two-tailed). […]

By T/C is commonly meant the result in the treated group divided by that in the control group, in per cent.

Regarding `O=C(/C=C\n1cnc(-c2cc(C(F)(F)F)cc(C(F)(F)F)c2)n1)NNc1cnccn1` [selinexor], the “selinexor sensitivity (viability)” value in test [1] was “increased selinexor sensitivity”. For the same molecule, the “T/C at control arm endpoint” value in test [2] (osimertinib 25 mg/kg p.o. QDx5, selinexor 10 mg/kg p.o. QDx3, combination at same doses) is given as 57.67%. The “SOX2 protein upregulation induced by targeted therapy (western blot)” value in test [2] (selinexor added to osimertinib) was “suppressed”.
